In article PMC10470178, “Long-acting lenacapavir protects macaques against intravenous challenge with simian-tropic HIV” (eBioMedicine, 2023):

Columns and labels:
[1] = test system: stHIV-A19; assay: Multi-round replication assay of stHIV-A19 in primary human PBMCs (PERT readout); type: cell-based, simian-tropic HIV-1; settings: three donors, RT in supernatant at 7 days
Method: (§1) Infectious stocks of stHIV-A19,[23] HIV-1 NL4-3, and SIVmac239 were produced in HEK-293T (RRID: CVCL_1926) cells transfected with full-length viral genome plasmids using the TransIT HEK-293 transfection reagent (Mirus Bio) according to the manufacturer’s instructions. Virus stock infectious titres were determined on TZM-bl reporter cells (RRID: CVCL_B478) as previously described.[26] For experiments using SupT1-CCR5 target cells (RRID: CVCL_X633),[27] cultures were maintained in RPMI 1640 medium supplemented with 10% foetal bovine serum (FBS), 2 mM glutamine, 100 U/ml penicillin, and 100 μg/ml streptomycin. […] Cells were then washed three times to remove input virus, counted, and cultured in triplicate in growth media containing serial threefold dilutions of LEN or no LEN (control). […] Culture supernatants were collected 7 days post-inoculation, clarified by centrifugation, and stored at −80 °C for later quantification of vRNA by quantitative reverse transcription polymerase chain reaction (qRT-PCR). […] The stHIV-A19 stock was quantified with a SYBR Green-based qPCR-based product-enhanced RT (PERT) assay using a purified reverse transcriptase (RT) protein standard, as previously described.[28] […] After 7 days, the virus in culture supernatants was quantified using the PERT assay. […]

[2] = test system: SHIVs; set-up: method as in PMID 34875675; settings: SHIVs contain SIV CA derived from SIVmac239; cited from earlier work
[3] = test system: SIVmac239; assay: Multi-round viral replication assay in SupT1-CCR5 cells, SIVmac239; type: cell-based, SIV
Method: as §1

[4] = set-up: method as in earlier work; settings: single SC injection of 900 mg LEN, Phase 1b clinical trial; cited from earlier work
[5] = test system: HIV-1 NL4-3; assay: Multi-round viral replication assay in SupT1-CCR5 cells, HIV-1 NL4-3; type: cell-based; settings: Human immunodeficiency virus 1, NL43, 168 h, supernatant vRNA 7 days post-infection, mean ± SD of three independent experiments, read-out: mean EC50 against HIV-1 NL4-3
Method: as §1

[6] = test system: HIV-1; set-up: method as in PMID 32612233; settings: people with HIV-1, monotherapy, 450 mg, after 9 days of treatment; cited from earlier work

## CC(C)(C#Cc1ccc(-c2ccc(Cl)c3c(NS(C)(=O)=O)nn(CC(F)(F)F)c23)c([C@H](Cc2cc(F)cc(F)c2)NC(=O)Cn2nc(C(F)(F)F)c3c2C(F)(F)[C@@H]2C[C@H]32)n1)S(C)(=O)=O [LEN, Lenacapavir]
[1]; calculated from EC50 with Hill coefficient 3.51
  mean EC95 against stHIV-A19 in human PBMC: 122 ± 31 pM
[1]; calculated from EC50 with Hill coefficient 3.51, listed as Lenacapavir
  mean EC95 against stHIV-A19 in human PBMC: 122 (±31 SD) pM
[2]
  reduced sensitivity of SHIVs compared with HIV-1: 5–8 fold
[3]
  reduced potency against SIVmac239 compared with HIV-1 NL4-3 and stHIV-A19: approximately 6 fold
[3]; Simian immunodeficiency virus, 168 h, supernatant vRNA 7 days post-infection, mean ± SD of three independent experiments, read-out: mean EC50 against SIVmac239
  EC50: 0.502 nM
[4]
  mean plasma drug concentrations relative to PA-EC95, maintained for 6 months: ≥ 6 fold
[5]
  EC50: 0.086 nM
[6]
  maximum reductions in plasma viral loads: > 100 fold
